“Also recorded” adds a separate entry of the source.
Tests used:
[1] = tested on: caspase 3, caspase 8, caspase 9, Bcl2, BclXL, cytochrome c; experiment: western blot analysis, apoptosis proteins; assay type: cell-based; conditions: HCT116 and SW480 cells, 48 h
Experimental: The pathways for apoptosis were studied to determine whether the analogs were capable of inhibiting certain aspects of the pathways. […] HCT116 and SW480 cells treated with MRL, THB, THBCD, DHB, DHBCD and CD for 48 h and performed for western blot analysis. […] It is shown that THBCD also activates caspase 8 and caspase 9. Furthermore, THB and THBCD inhibit anti-apoptotic protein Bcl2 and BclXL levels. […] HCT116 and SW480 cells treated with MRL, THB, THBCD, DHB, DHBCD and CD for 48 h and performed for western blot analysis. Furthermore, THB and THBCD inhibit phosphorylation of Akt (FIG. 3).

DCLK1, LGR5 and CD44 = experiment: stem cell marker protein expression; assay type: cell-based; conditions: HCT116 and SW480 cells
Experimental: The analogs were also tested with doublecortin and CaM kinase-like-1 (DCLK1), a microtubule-associated kinase expressed in postmitotic neurons and is an intestinal stem cell marker that is expressed in colon adenocarcinoma. DCLK1 distinguishes between tumor and normal stem cells in the intestine and could be a therapeutic target for colon cancer.

[2] = tested on: HCT116 colon cancer cells; experiment: hexoseaminidase cell proliferation assay, HCT116; assay type: cell-based
Text: Using hexoseaminidase assay, we determined the effect of the compounds on cell proliferation. […]
Using hexoseaminidase assay, we determined the effect of the compounds on cell proliferation. […] […] […] Overall, the analogs can be used as chemotherapeutic agents against colon and pancreatic cancer.

[3] = tested on: colon, pancreatic and bladder cancer cells; experiment: hexoseaminidase cell proliferation assay, summaries over cell lines; assay type: cell-based; conditions: dose and time dependent
Experimental: Water solubility studies were performed with the CD/analog complexes. […] The observed IC50 value of THBCD at 48 h is below 10 μM in all the colon, pancreatic and bladder cancer cells.
(§1) Using hexoseaminidase assay, we determined the effect of the compounds on cell proliferation. […] The IC50 value at 48 hours is below 10 μM in all the cancer cell lines.
(§2) Using hexoseaminidase assay, we determined the effect of the compounds on cell proliferation. […] The MRL16 IC50 value at 48 hours is below 0.3 μM in Colon cancer cell lines. […] Overall, the analogs can be used as chemotherapeutic agents against colon and pancreatic cancer.

SW480 cells = experiment: cell cycle analysis, SW480; assay type: cell-based; conditions: SW480, Table 3
Experimental: The analogs were tested to determine the ability induce death of colon cancer cells.

[4] = tested on: 253JBV bladder cancer cells; experiment: hexoseaminidase cell proliferation assay, 253JBV; assay type: cell-based
Experimental: as §1

[5] = tested on: MiaPaCa-2 pancreatic cancer cells; experiment: hexoseaminidase cell proliferation assay, MiaPaCa-2; assay type: cell-based
Experimental: as §1, §2

KU7 bladder cancer cells = experiment: hexoseaminidase cell proliferation assay, KU7; assay type: cell-based
Experimental: as §1

CAMKII = experiment: kinase activity against CAMKII; assay type: biochemical
CAMKIV = CAMKIV (Homo sapiens, UniProt Q16566); experiment: kinase activity against CAMKIV; assay type: biochemical
Chain of CAMKIV (Q16566 whole entry, species assumed): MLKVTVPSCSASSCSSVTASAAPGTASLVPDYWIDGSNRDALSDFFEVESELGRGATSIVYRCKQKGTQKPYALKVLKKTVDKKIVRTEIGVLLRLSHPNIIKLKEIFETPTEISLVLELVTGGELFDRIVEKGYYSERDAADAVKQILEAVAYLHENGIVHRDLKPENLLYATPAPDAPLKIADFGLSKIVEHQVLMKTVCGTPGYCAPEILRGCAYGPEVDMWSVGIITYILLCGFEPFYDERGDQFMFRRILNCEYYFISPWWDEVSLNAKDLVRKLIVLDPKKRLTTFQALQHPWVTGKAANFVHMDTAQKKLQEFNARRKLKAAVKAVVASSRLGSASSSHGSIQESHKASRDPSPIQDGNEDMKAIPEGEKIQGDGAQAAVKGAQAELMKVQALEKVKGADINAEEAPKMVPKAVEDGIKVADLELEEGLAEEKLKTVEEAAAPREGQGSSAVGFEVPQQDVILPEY

IC50 ([2]; HCT116, 24 h): > 50 µM
IC50 ([2]; HCT116, 48 h): 10 µM
IC50 ([2]; HCT116, 72 h): 7.5 µM
IC50 ([2]; HCT116, 72 h, listed as THB): 8 µM
IC50 ([4]; 48 h): 38 µM
IC50 ([4]; 72 h): 15 µM
IC50 ([5]; MiaPaCa-2, 24 h): > 50 µM
IC50 ([5]; MiaPaCa-2, 48 h): 10 µM
IC50 ([5]; MiaPaCa-2, 72 h): 10 µM
IC50 ([5]; MiaPaCa-2, 72 h, listed as THB): 9 µM
IC50 (KU7 bladder cancer cells; KU7, 24 h): 22 µM
IC50 (KU7 bladder cancer cells; KU7, 48 h): 8 µM
IC50 (KU7 bladder cancer cells; KU7, 72 h): 6 µM
fold less activity against CAMKII than DCLK1 (CAMKII): 100 fold
fold less activity against CAMKIV than DCLK1 (CAMKIV): 100 fold
Structure (SMILES): O=C(N/N=C/c1ccc(O)c(O)c1O)c1cc2ccccc2cc1O [MRL THB]
anti-apoptotic protein Bcl2 and BclXL levels [1]: inhibit
cytochrome c [1]: inhibit
DCLK1, LGR5 and CD44 expression (DCLK1, LGR5 and CD44): significantly inhibited
inhibition of cell proliferation (in words) [3]: potent inhibitor; also recorded: inhibit proliferation
G0/G1 (%) (SW480 cells): 39.5%
G2M (%) (SW480 cells): 26.8%
S (%) (SW480 cells): 21.8%
SubG0 Dead Cells (%) (SW480 cells): 10.8%
